Results taken from US11344627B2, “Dendrimer-exosome hybrid nanoparticles as a delivery platform” (WISCONSIN ALUMNI RESEARCH FOUNDATION, priority 2017, dated 2022).
Entries after “also recorded” stand apart in the source; their conditions may differ.

System: HUVEC cells
Assay: Immunostaining of P-selectin and VCAM-1 on endothelial cells upon TNF-α treatment
Assay type: cell-based, human
Details: TNF-α 20 ng/mL, 4 hrs, confocal
Protocol: Immunostaining: To determine P-selectin and VCAM-1 expression on endothelial cells upon TNF-α-treatment, HUVEC cells were cultured on a cover glass and treated with 20 ng/mL of TNF-α at 37° C. for 4 hrs. The cells were fixed with 4% paraformaldehyde and blocked using a 5% BSA solution in PBS for 30 min. The cells were then incubated with primary antibodies against P-selectin or VCAM-1 for 1 hr at room temperature. The cells were incubated with fluorescence-labeled secondary antibodies for 1 hr at room temperature. The cells were washed, mounted with a mounting medium, and observed using a confocal microscope (Zeiss, Dublin, Calif.).
Potential advantages of using hMSC-derived exosomes would include the utilization of the homing properties of hMSCs to inflamed endothelia that are frequently found in cancerous regions. […] Human umbilical vein endothelial cells (HUVEC) were used to determine if the exosomes could potentially interact with the cells upon activation using TNF-α. TNF-α is known to induce expression of vascular cell adhesion molecule-1 (VCAM-1) and P-selectin that are directly involved in the hMSC binding to endothelial layers. The expression of VLA-4 and CD162 that are ligands binding to VCAM-1 and P-selectin, respectively, from the exosomes was confirmed using western blotting (FIG. 9).

Substance: TNF-α
- P-selectin expression: overexpress; also recorded: increased
- VCAM-1 expression: overexpress; also recorded: increased
